Assay results from the supplement of paper PMC11208160.

Test: recombinant UMI read abundance after kanamycin selection (control-corrected) (log10(CPM+1)); higher = more efficient recombination; extreme values may be limits of the assay; sequences stand for … in AGTGCAGAGAAAATCGGCCAGTTTTCTCTGCCTGCAGTCCGCATGCCGTGGGACCCCTTGGGTTCTAACCTGTTGCCTAGATTTATGCAGCGGACTGCCTTTCTCCCAAAGTGATAAACCGG…AGGTTGGTTTCACT; site = the 11-nt donor
Method in brief: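 Sequencing read counts were converted to CPM, averaged over two replicates and scaled by control-derived factors. Results are given as log10(CPM+1). The reads covered the donor–target junction of recombinant UMIs from a pooled Escherichia coli screen of donor and donor-binding-loop pairs for the IS621 bridge recombinase.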
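Also: IS621 bridge recombinase in Escherichia coli cells against a fixed T5 target plasmid.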

Sequence | recombinant UMI read abundance (log10)
GTTGTTACATGGACCGGTTTTCCCGGTAATCCGTATTTGGT (site GTTGTTCCTAC) | 0
GTTGTTACATGGACCGGTTTTCCCGGTAATCCGTATTTGGT (site GTTGTTGCTAC) | 0.0188
GTTGTTACATGGACCGGTTTTCCCGGTAATCCGTATTTGGT (site GTTGTTTCTAC) | 0
GTTGTTCCATGGACCGGTTTTCCCGGTAATCCGTATTTGAT (site GTTGTTCCTAA) | 0.0147
GTTGTTCCATGGACCGGTTTTCCCGGTAATCCGTATTTGAT (site GTTGTTCCTAC) | 0.00806
GTTGTTCCATGGACCGGTTTTCCCGGTAATCCGTATTTGAT (site GTTGTTCCTAG) | 0
GTTGTTCCATGGACCGGTTTTCCCGGTAATCCGTATTTGAT (site GTTGTTCCTAT) | 0.00518
GTTGTTCCATGGACCGGTTTTCCCGGTAATCCGTATTTGCT (site GTTGTTCCTAA) | 0.0109
GTTGTTCCATGGACCGGTTTTCCCGGTAATCCGTATTTGCT (site GTTGTTCCTAC) | 0.0126
GTTGTTCCATGGACCGGTTTTCCCGGTAATCCGTATTTGCT (site GTTGTTCCTAG) | 0
GTTGTTCCATGGACCGGTTTTCCCGGTAATCCGTATTTGCT (site GTTGTTCCTAT) | 0.00476
GTTGTTCCATGGACCGGTTTTCCCGGTAATCCGTATTTGGC (site GTTGTTCCTAC) | 0.00298
GTTGTTCCATGGACCGGTTTTCCCGGTAATCCGTATTTGGC (site GTTGTTCCTCC) | 0.0108
GTTGTTCCATGGACCGGTTTTCCCGGTAATCCGTATTTGGC (site GTTGTTCCTGC) | 0
GTTGTTCCATGGACCGGTTTTCCCGGTAATCCGTATTTGGC (site GTTGTTCCTTC) | 0.0051
GTTGTTCCATGGACCGGTTTTCCCGGTAATCCGTATTTGGG (site GTTGTTCCTAC) | 0.0139
GTTGTTCCATGGACCGGTTTTCCCGGTAATCCGTATTTGGG (site GTTGTTCCTCC) | 0.0029
GTTGTTCCATGGACCGGTTTTCCCGGTAATCCGTATTTGGG (site GTTGTTCCTGC) | 0
GTTGTTCCATGGACCGGTTTTCCCGGTAATCCGTATTTGGG (site GTTGTTCCTTC) | 0.00718
GTTTAACCATGGACCGGTTTTCCCGGTAATCCGTATTTGGT (site GTTTAACCTAC) | 0.00474
GTTTACCCATGGACCGGTTTTCCCGGTAATCCGTATTTGGG (site GTTTACCCTCC) | 0.00501
GTTTATTCATGGACCGGTTTTCCCGGTAATCCGTATTTGCT (site GTTTATTCTAG) | 1.99
GTTTATTCATGGACCGGTTTTCCCGGTAATCCGTATTTGGT (site GTTTATTCTAC) | 1.61
GTTTCGGCATGGACCGGTTTTCCCGGTAATCCGTATTTGGT (site GTTTCGGCTAC) | 0.282
GTTTGCCCATGGACCGGTTTTCCCGGTAATCCGTATTTGAT (site GATTGCCCTAT) | 0.00963

Sequence | recombinant UMI read abundance (log10)
GTTTGCCCATGGACCGGTTTTCCCGGTAATCCGTATTTGAT (site GCTTGCCCTAT) | 0.0198
GTTTGCCCATGGACCGGTTTTCCCGGTAATCCGTATTTGAT (site GGTTGCCCTAT) | 0.018
GTTTGCCCATGGACCGGTTTTCCCGGTAATCCGTATTTGAT (site GTTTGCCCTAT) | 0.0181
GTTTGCGCATGGACCGGTTTTCCCGGTAATCCGTATTTGTC (site GTTTGCGCTGA) | 1.54
TAAACAACATGGACCGGTTTTCCCGGTAATCCGTATTTGTA (site TAAACAACTTA) | 0.815
TAAACCACATGGACCGGTTTTCCCGGTAATCCGTATTTGAT (site TAAACCACTAT) | 1.3
TAAAGTCCATGGACCGGTTTTCCCGGTAATCCGTATTTGCA (site TAAAGTCCTTA) | 0.00275
TAAAGTCCATGGACCGGTTTTCCCGGTAATCCGTATTTGCA (site TAAAGTCCTTC) | 0.00901
TAAAGTCCATGGACCGGTTTTCCCGGTAATCCGTATTTGCA (site TAAAGTCCTTG) | 1.07
TAAAGTCCATGGACCGGTTTTCCCGGTAATCCGTATTTGCA (site TAAAGTCCTTT) | 0
TAAAGTCCATGGACCGGTTTTCCCGGTAATCCGTATTTGTG (site TAAAGTCCTAA) | 0.00597
TAAAGTCCATGGACCGGTTTTCCCGGTAATCCGTATTTGTG (site TAAAGTCCTCA) | 0.64
TAAAGTCCATGGACCGGTTTTCCCGGTAATCCGTATTTGTG (site TAAAGTCCTGA) | 0
TAAAGTCCATGGACCGGTTTTCCCGGTAATCCGTATTTGTG (site TAAAGTCCTTA) | 0.19
TAAATTTCATGGACCGGTTTTCCCGGTAATCCGTATTTGCC (site TAAATTTCTGG) | 0
TAACAATCATGGACCGGTTTTCCCGGTAATCCGTATTTGTC (site TAACAATCTGA) | 2.03
TAACCTCCATGGACCGGTTTTCCCGGTAATCCGTATTTGAT (site TAACCTCCTAT) | 0
TAACGCACATGGACCGGTTTTCCCGGTAATCCGTATTTGTA (site TAACGCACTTA) | 1.61
TAACGTTCATGGACCGGTTTTCCCGGTAATCCGTATTTGCA (site TAACGTTCTTG) | 1.75
TAACTGACATGGACCGGTTTTCCCGGTAATCCGTATTTGAT (site TAACTGACTAT) | 1.54
TAACTGCCATGGACCGGTTTTCCCGGTAATCCGTATTTGTG (site TAACTGCCTCA) | 0.00877
TAACTTACATGGACCGGTTTTCCCGGTAATCCGTATTTGGC (site TAACTTACTGC) | 1.32
TAAGAATCATGGACCGGTTTTCCCGGTAATCCGTATTTGCG (site TAAGAATCTCG) | 2.9
TAAGAATCATGGACCGGTTTTCCCGGTAATCCGTATTTGCG (site TACGAATCTCG) | 1.95
TAAGAATCATGGACCGGTTTTCCCGGTAATCCGTATTTGCG (site TAGGAATCTCG) | 2.51

Sequence | recombinant UMI read abundance (log10)
TAAGAATCATGGACCGGTTTTCCCGGTAATCCGTATTTGCG (site TATGAATCTCG) | 1.97
TAAGACTCATGGACCGGTTTTCCCGGTAATCCGTATTTGTC (site TAAGACTCTGA) | 2.64
TAAGCCGCATGGACCGGTTTTCCCGGTAATCCGTATTTGCA (site GGGTTGCCTGA) | 0
TAAGCTGCATGGACCGGTTTTCCCGGTAATCCGTATTTGAG (site TAAGCTGCTCT) | 1.32
TAAGCTGCATGGACCGGTTTTCCCGGTAATCCGTATTTGCC (site TAAGCTGCTGG) | 1.94
TAAGGTACATGGACCGGTTTTCCCGGTAATCCGTATTTGTA (site TAAGGTACTTA) | 2.09
TAAGTTGCATGGACCGGTTTTCCCGGTAATCCGTATTTGTG (site TAAGTTGCTCA) | 1.4
TAATAGTCATGGACCGGTTTTCCCGGTAATCCGTATTTGCG (site TAATAGTCTCG) | 3.15
TAATCACCATGGACCGGTTTTCCCGGTAATCCGTATTTGAG (site TAATCACCTCT) | 0.0222
TAATGACCATGGACCGGTTTTCCCGGTAATCCGTATTTGCC (site TAATGACCTGG) | 0
TAATGACCATGGACCGGTTTTCCCGGTAATCCGTATTTGGG (site TAATGAACTCC) | 0.00176
TAATGACCATGGACCGGTTTTCCCGGTAATCCGTATTTGGG (site TAATGACCTCC) | 0.00316
TAATGACCATGGACCGGTTTTCCCGGTAATCCGTATTTGGG (site TAATGAGCTCC) | 0.0136
TAATGACCATGGACCGGTTTTCCCGGTAATCCGTATTTGGG (site TAATGATCTCC) | 0.00372
TAATGAGCATGGACCGGTTTTCCCGGTAATCCGTATTTGTG (site TAATGAGCTCA) | 1.16
TAATGAGCATGGACCGGTTTTCCCGGTAATCCGTATTTGTG (site TAATGAGCTCC) | 0.00287
TAATGAGCATGGACCGGTTTTCCCGGTAATCCGTATTTGTG (site TAATGAGCTCG) | 1.54
TAATGAGCATGGACCGGTTTTCCCGGTAATCCGTATTTGTG (site TAATGAGCTCT) | 0.133
TAATGTGCATGGACCGGTTTTCCCGGTAATCCGTATTTGGG (site TAATGAGCTCC) | 0.0156
TAATGTGCATGGACCGGTTTTCCCGGTAATCCGTATTTGGG (site TAATGCGCTCC) | 0.00475
TAATGTGCATGGACCGGTTTTCCCGGTAATCCGTATTTGGG (site TAATGGGCTCC) | 0.00856
TAATGTGCATGGACCGGTTTTCCCGGTAATCCGTATTTGGG (site TAATGTGCTCC) | 0.0867
TAATTGACATGGACCGGTTTTCCCGGTAATCCGTATTTGCT (site TAATTGACTAG) | 2.35
TAATTGACATGGACCGGTTTTCCCGGTAATCCGTATTTGCT (site TACTTGACTAG) | 1.17
TAATTGACATGGACCGGTTTTCCCGGTAATCCGTATTTGCT (site TAGTTGACTAG) | 1.39
